For data set [1] the following is noted: cited from earlier work.
Data set [2] is described as follows: Heparin affinity chromatography / heparin binding. As to the method: FIG. 1. Intact heparin-binding in the GST-FGF7 fusion product. Pure 200 μg GST-FGF7 and 10 ng ^125I-FGF7 (3×10^6 cpm) was mixed and subjected to heparin affinity chromatography on Pharmacia FPLC system. The GST-FGF7 was detected as a major peak (solid trace) by absorbance at 280 nm.
When fused at the N-terminal of FGF7 with a highly soluble and productive partner, Glutathione-S-transferase (GST), FGF7 was produced in bacteria at about 3.2 mg/ml yield with retained biological activity. Expressing alone has barely detectable level by immuno-reaction. Pure fusion protein was obtained by sequential chromatography on Glutathione (GSH) and Heparin affinity matrix (Luo et al. 1998, Lu et al. 1999, Jang et al. 1997). This is consistent with FGF7 crystal structure, which shown that the N-terminal of FGF7 is flexible and outside the compact core structure, and heparin-binding domain is apart from the flexible N-terminal. FGF7 itself was released by simply trypsin digestion that mimics an in vivo cleavage event (Luo et al. 1998, Lu et al. 1999, Jang et al. 1997).

Another data set has as its system Factor IIa. The data set can be described thus: Neutralization assay, anti-Factor IIa activity of heparin. The format is biochemical. To be noted: 0.9M NaCl eluted 6000 Da heparin fractions. Here is the method: (§1) FIG. 4. Neutralization of anticoagulant activity of 0.9M NaCl eluted 6000 Da heparin (Sigma) fractions from GST-FGF7 column (closed squares) or Antithrombin column (closed triangles) by FGF7. a. 0.3, 1, 3, 10, 30 ug/ml FGF7 was used to neutralize anti-Factor Xa activity of 0.9M elute. b. 0.3, 1, 3, 10, 30 μg/ml FGF7 was used to neutralize anti-Factor IIa activity. The activity was expressed as percentage of Factor Xa or IIa activity in the presence of Antithrombin and FGF7, but absence of any heparin, subtracted by the remaining activity without FGF7 addition. […] Data represent average of at least three separate experiments.
(§2) Neutralization assay. 10 μl 1 μg/ml 0.9 M high affinity FGF7 or Antithrombin bound 6000 Da heparin (final concentration 100 ng/ml) (Sigma, St. Louis) and 10 μl various concentration of FGF7 were incubated with 10 μl 10 μg/ml Antithrombin solution. The rest of the assay was essentially followed the anti-Factor Xa or anti-Factor IIa assay described above. The activity was expressed as percentage of Factor Xa or IIa activity in the presence of Antithrombin and FGF7, but absence of any heparin, subtracted by the remaining activity without FGF7 addition.

In the next data set the target is T1, FGFR2111b (Homo sapiens, UniProt P21802).
T1 construct: expressed in transfected cells; host or cells: insect cells
Put plainly: Binding to FGFR complex on the surface of insect cells. As to the method: (§3) Finally, the recovery and activity of purified ^54Ser-FGF7 was tested after the removal of the GST portion by trypsin treatment from the heparin-immobilized GST-FGF7 recovered under the improved conditions employing 10 mM MgCl2 and the BL21 (DE3) pLysS strain. […] Results indicated a yield of pure ^54Ser-FGF7 of 4.8±0.5 mg per liter per OD600, which on a molar basis represents an average yield of 70 percent from the purified GST-FGF7 product.

Data set [3] concerns factor Xa. The data set can be described thus: Neutralization assay, anti-Factor Xa activity of heparin. To be noted: 0.9M NaCl eluted 6000 Da heparin fractions. The class given is biochemical. Here is the method:
as §1, §2

The subject of a further data set is mouse keratinocytes (MK). The data set can be described thus: Mitogenic activity in cultured mouse keratinocytes (MK). The class given is cell-based. To be noted: cells in culture. As to the method: as §3
For a further data set, the target named is T2, FGF7 (Rattus norvegicus, UniProt Q02195).
T2 construct: GST (N, cleaved yes); made in house; host or cells: bacteria (E. coli)
T2 sequence (Q02195 55-194): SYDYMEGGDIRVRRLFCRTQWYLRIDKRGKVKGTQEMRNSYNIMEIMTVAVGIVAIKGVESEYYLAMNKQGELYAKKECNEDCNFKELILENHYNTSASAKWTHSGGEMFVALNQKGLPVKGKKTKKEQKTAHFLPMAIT
Put plainly: Protease (pronase) protection assay with 125I-FGF7. The format is biochemical. To be noted: 150 ng pronase, overnight 37° C., SDS-PAGE/autoradiography. As to the method: Interaction of Heparin and Oligosaccharides with FGF. The antithrombin-binding decasaccharide (10-mer) was prepared, purified to homogeneity (28) and has the structure ΔUAp2S(1→4)-α-D-GlcNpS6S(1→4)-α-L-IdoAp(1→4)-α-D-GlcNpAc6S(1→4)-β-D-GlcAp(1→4)-α-D-GlcNpS3S6S(1→4)-α-L-IdoAp2S(1→4)-α-D-GlcNpS6S(1→4)-α-L-IdoAp2S(1→4)-α-D-GlcNpS6S. The tetradecasaccharide (14-mer) was prepared in >90% purity and characterized by multidimensional NMR spectroscopy (Toida et al. 1996). While the saccharide composition and the presence of an antithrombin-binding site pentasaccharide sequence could be confirmed, the precise placement of this sequence within the tetradecasaccharide could not be elucidated. The sequence was ΔUAp2S(1→4)-α-D-GlcNpS6S (1→4)-α-L-IdoAp2S(1→]n4)-α-D-GlcNpS6S(1→4)-α-LIdoAp(1→4)-α-D-GlcNpAc6S(1→4)-β-D-GlcAp(1→4)-α-D-GlcNpS3S6S(1→4)-α-L-IdoAp2S(1→[4)-α-D-GlcNpS6S(1→4)-α-L-IdoAp2S(1 43 ]m4)-α-D-GlcNS6S where n+m=3. The anti-factor Xa amydolytic activity of the hexasaccharide (6-mer), decasaccharide (10-mer) and tetradecasaccharide (14-mer) were 0, 3200 and 5800 units/mg, respectively, as determined against a low molecular weight heparin (Toida et al. 1996). Heparin was fractionated by antithrombin affinity chromatography (Kan et al. 1999). […] After incubation overnight at 37° C., SDS-PAGE and autoradiography were employed to quantify the remaining FGF. […]

Data set [4] has as its system factor Xa. The settings on record: determined against a low molecular weight heparin (Toida et al. 1996); cited from earlier work.

“Also recorded” adds a separate entry of the source. A value given as a limit tells only on which side of the number the result lay.

T1 sequence (P21802 22-822 isoform P21802-3 limits assumed): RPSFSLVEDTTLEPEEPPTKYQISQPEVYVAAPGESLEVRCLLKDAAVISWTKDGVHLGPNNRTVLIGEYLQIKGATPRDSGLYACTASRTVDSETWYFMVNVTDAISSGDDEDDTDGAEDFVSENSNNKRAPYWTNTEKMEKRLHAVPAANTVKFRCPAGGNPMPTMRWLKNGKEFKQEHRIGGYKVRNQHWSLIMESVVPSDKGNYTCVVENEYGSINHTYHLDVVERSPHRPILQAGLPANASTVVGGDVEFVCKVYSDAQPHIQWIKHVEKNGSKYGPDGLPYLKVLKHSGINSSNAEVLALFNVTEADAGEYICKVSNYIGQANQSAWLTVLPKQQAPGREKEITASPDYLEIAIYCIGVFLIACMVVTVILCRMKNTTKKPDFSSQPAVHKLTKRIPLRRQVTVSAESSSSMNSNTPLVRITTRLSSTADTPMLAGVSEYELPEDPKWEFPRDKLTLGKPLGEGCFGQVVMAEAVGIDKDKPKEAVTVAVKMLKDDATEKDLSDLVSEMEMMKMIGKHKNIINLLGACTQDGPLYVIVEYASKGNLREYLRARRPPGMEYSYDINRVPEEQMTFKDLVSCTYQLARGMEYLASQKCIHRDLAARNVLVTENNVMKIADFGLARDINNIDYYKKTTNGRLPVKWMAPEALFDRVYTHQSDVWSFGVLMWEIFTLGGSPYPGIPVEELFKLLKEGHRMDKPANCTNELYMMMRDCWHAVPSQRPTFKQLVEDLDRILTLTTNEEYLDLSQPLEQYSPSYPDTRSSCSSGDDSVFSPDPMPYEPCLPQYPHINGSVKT

For the substance heparin, in data set [1] (human, in vivo), the “patients developing clinically significant osteoporosis” value is reported as “half” and the “patients with thrombocytopenia persisting for the duration of therapy” value is reported as “approximately 5%”.

As to “GST-FGF7: fusion protein Glutathione-S-Transferase-Fibroblast Growth Factor 7, SEQ ID NO.4”, the “heparin binding” value in data set [2] is “retain affinity for heparin similar to the unfused products; also recorded: fully active”. The “sodium chloride concentration of elution from heparin affinity column” value in data set [2] (heparin affinity chromatography, FPLC (FIG. 1)) is on record as “about 0.9 M”. The “neutralization of anti-Factor IIa activity compared with FGF7” value with Factor IIa is given as “same neutralization effects as FGF7”. The “binding to / activation of the FGFR complex” value with FGFR2111b is “Neither GST-FGF1 nor GST-FGF7 bind and activate the FGFR kinase complex; also recorded: inactive”. In addition, the “neutralization of anti-Factor Xa activity compared with FGF7” value with factor Xa [3] is reported as “same neutralization effects as FGF7”. Also, in the data set with mouse keratinocytes (MK), the mitogenic activity result was “Neither GST-FGF1 nor GST-FGF7 bind and activate the FGFR kinase complex and exhibit mitogenic activity; also recorded: inactive”.

For protamine, in data set [1] (use of protamine in patients), the “incidence of mild reactions” value is not above 16%.

Regarding “ΔUAp2S(1→4)-α-D-GlcNpS6S(1→4)-α-L-IdoAp(1→4)-α-D-GlcNpAc6S(1→4)-β-D-GlcAp(1→4)-α-D-GlcNpS3S6S(1→4)-α-L-IdoAp2S(1→4)-α-D-GlcNpS6S(1→4)-α-L-IdoAp2S(1→4)-α-D-GlcNpS6S [decasaccharide (10-mer)]”, the “protection of FGF7 against protease” value at FGF7 is given as “able to protect”. Besides, the “anti-factor Xa amydolytic activity” value in the data set on factor Xa [4] is listed as 3200 units/mg.

On to “PF4: Heparin-binding platelet factor 4, proposed scavenger for neutralizing the anticoagulant effect”, for which the “adverse effect of administration to patients” value in data set [1] (humans (U.S. Pat. No. 5,801,063)) is reported as “serious granulocytopenia”.

Regarding “ΔUAp2S(1→4)-α-D-GlcNpS6S (1→4)-α-L-IdoAp2S(1→]n4)-α-D-GlcNpS6S(1→4)-α-LIdoAp(1→4)-α-D-GlcNpAc6S(1→4)-β-D-GlcAp(1→4)-α-D-GlcNpS3S6S(1→4)-α-L-IdoAp2S(1→[4)-α-D-GlcNpS6S(1→4)-α-L-IdoAp2S(1 43 ]m4)-α-D-GlcNS6S where n+m=3 [tetradecasaccharide (14-mer)]”, the “protection of FGF7 against protease” value at FGF7 is given as “able to protect”. The “anti-factor Xa amydolytic activity” value in the data set on factor Xa [4] was 5800 units/mg.

With “GST-FGF1: human FGF1 fused to Glutathione-S-Transferase (GST)”, the “heparin binding” value in data set [2] is reported as “retain affinity for heparin similar to the unfused products”. In addition, in the data set with FGFR2111b, the “binding to / activation of the FGFR complex” value was “Neither GST-FGF1 nor GST-FGF7 bind and activate the FGFR kinase complex”. Besides, the mitogenic activity result in the data set on mouse keratinocytes (MK) was “Neither GST-FGF1 nor GST-FGF7 bind and activate the FGFR kinase complex and exhibit mitogenic activity”.

(Values after patent US6812221B2, “FGF-affinity chromatography” (The Texas A&M University System, priority 2000, dated 2004).)
